Measured values as given in patent US20040096899A1, “Immunoassay method for membrane-bound matrix metalloprotease” (priority 2000, published 2004).
Each block holds one substance with its values, some of them ahead of it.

Tests used:
[1] = molecular target: T1, MT1-MMP sandwich EIA (solid-phase antibody 222-2D12, labeled antibody 222-1D8) (Homo sapiens, UniProt P50281); experiment: Specificity test: cross reactivity on MT1-MMP sandwich EIA; assay type: binding; details: concentration 1 μg/mL; blank 0.027
T1 construct: 488 amino acid residues of Δ MT1-MMP (G^48 to G^53) which lacks the signal peptide and part of the propeptide region; made in house; host or cells: E. coli
Experimental: Monoclonal antibodies (e.g., 333-2D12 (IgG)) were dissolved in 0.1 M phosphate buffer, pH 7.0 to a concentration of 25 μg/mL. The monoclonal antibody solution was added to each well of a 96-well microwell (Maxisorp; Nunc-Immuno Module) at 100 μL per well and allowed to stand at 4° C. for 24 hrs. […] The solid-phase antibodies were preserved at 4° C.
Standard antigens or samples to be assayed were dispensed into a 96-well vinyl plate at 25 μL each. To each well was added a dilution buffer in aliquots of 100 μL, followed by mixing. An aliquot (100 μL) of the resultant mixture was taken out, dispensed into an antibody-solid phased plate from which a blocking solution was removed by washing. The plate was then allowed to stand at 4° C. for 16 hours.
[…] antibody 222-1D8 (Fab′-HRP) was diluted with a blocking solution to a concentration of 0.4 μg/mL. The reaction solution was removed from the antibody-solid phased plate where the primary reaction was completed. The plate was washed with a washing liquid three times and an aliquot (100 μL) of the labeled antibody solution was added to each well. The plate was allowed to stand at room temperature for 1 hour.
After completion of the reaction, the labeled antibody solution was removed. The plate was then washed with a washing liquid three times, and a TMB solution (CALBIOCHEM) was added to each well at 100 μL. The mixture was allowed to react at room temperature for 20 minute. The reaction was stopped with the addition of 2 N sulfuric acid at 100 μL per well. The reaction mixture was measured for A450 with a microplate reader (MPR-A4; Tosoh).
Each of MMP-1, -2, -3, -4, -7, -8, -9, -13, -19 and -20 was prepared to give a concentration of 1 μg/mL, and subjected to MT1-MMP sandwich EIA. A450 was measured. When MT1-MMP was subjected to sandwich EIA at 0.16 μg/mL, the absorbance was 2.206. However, when the above MMPs were subjected, their absorbances were only an extent of 0.024 to 0.071. Accordingly, it has been verified that MT1-MMP sandwich EIA is specifically reactive with MT1-MMP.

[2] = test system: CaSki (cervical epidermoid cancer); experiment: MT1-MMP sandwich EIA of cultured cell line with Con A; assay type: cell-based, Human; details: Con A-containing serum-free medium 48 hours
Experimental: (§1) Searches for Human MT1-MMP-producing culture cell lines were carried out by means of MT1-MMP sandwich EIA. With regard to the cell lines, there were used Burkitt's lymphoma (Daudi, Namalwa, Raji), acute lymphoblastic leukemia (T-cells) (MOLT-4), chronic myelogenous leukemia (K-562), promyelocytic leukemia (HL-60), fibrosarcoma (HT-1080), breast cancer (MDA-MB-231, SK-BR-3, MCF 7), lung cancer (A 549), rectal adenocarcinoma (SW 837), osteosarcoma ([…]), lingual squamous cell carcinoma (SSC-25), uterocervical cancer (HeLa), cervical epidermoid cancer (CaSki), prostatic cancer (PC-3) and malignant melanoma (A-375) cells. Each of the cancer cell lines was incubated in a plate of 10 cm diameter until being confluent, the medium was exchanged with serum-free medium or Con A-containing serum-free medium and, after 48 hours, the culture supernatant and the cells were recovered. The cells were ultrasonically disrupted in 0.5 mL of dilution buffer and centrifuged. The resulting supernatant was subjected to EIA as a cell extract fraction. The culture supernatant was subjected to EIA as it was.

HT-1080 (fibrosarcoma) = experiment: as above; assay type: cell-based, Human; details: HT-1080, Con A-containing serum-free medium 48 hours
Experimental: as §1

[3] = test system: MDA-MB-231 (breast cancer); experiment: as above; assay type: cell-based, Human; details: MDA-MB-231, Con A-containing serum-free medium 48 hours
Experimental: as §1

MG-63 (osteosarcoma) = experiment: as above; assay type: cell-based, Human; details: MG-63, Con A-containing serum-free medium 48 hours
Experimental: as §1

[4] = test system: SSC-25 (lingual squamous cell carcinoma); experiment: as above; assay type: cell-based, Human; details: SSC-25, Con A-containing serum-free medium 48 hours
Experimental: as §1

[5] = test system: SW 837 (rectal adenocarcinoma); experiment: as above; assay type: cell-based, Human; details: SW 837, Con A-containing serum-free medium 48 hours
Experimental: as §1

- A450 [1]: 0.028
Substance: MMP-8: matrix metalloproteinase subjected to MT1-MMP sandwich EIA for cross reactivity

- A450 [1]: 0.027
Substance: MMP-3: matrix metalloproteinase subjected to MT1-MMP sandwich EIA for cross reactivity

- A450 [1]: 0.026
Substance: MMP-7: matrix metalloproteinase subjected to MT1-MMP sandwich EIA for cross reactivity

Substance: concanavalin A [Con A]
- MT1-MMP in Culture Supernatant, +Con A ([2]; −Con A 1.7): 25.1
- MT1-MMP in Cell Extract Fraction, +Con A ([2]; −Con A 9.0): 9.5
- MT1-MMP in Culture Supernatant, +Con A (HT-1080 (fibrosarcoma); −Con A 10.1): 80.3
- MT1-MMP in Cell Extract Fraction, +Con A (HT-1080 (fibrosarcoma); −Con A 45.9): 42.6
- MT1-MMP in Culture Supernatant, +Con A ([3]; −Con A 7.6): 48.8
- MT1-MMP in Cell Extract Fraction, +Con A ([3]; −Con A 42.8): 85.0
- MT1-MMP in Cell Extract Fraction, +Con A (MG-63 (osteosarcoma); −Con A 0.7): 0.0
- MT1-MMP in Culture Supernatant, +Con A (MG-63 (osteosarcoma); −Con A 1.6): 20.3
- MT1-MMP in Culture Supernatant, +Con A ([4]; −Con A 2.8): 43.1
- MT1-MMP in Cell Extract Fraction, +Con A ([4]; −Con A 5.9): 19.1
- MT1-MMP in Culture Supernatant, +Con A ([5]; −Con A 1.8): 14.2
- MT1-MMP in Cell Extract Fraction, +Con A ([5]; −Con A 21.5): 30.7
